Results as given in patent US20150306049A1, “IMMEDIATE RELEASE FORMULATIONS OF CINACALCET” (K.H.S. PHARMA HOLDING GMBH, priority 2012, published 2015).
Read-outs that look alike come from different tables or passages of the source.

Conditions: for % Dissolution: 200 mg in 900 ml 0.1 N HCl, 37.0°C, 75 rpm
Description: 200mg of cinacalcet HCl of different D50 values was dropped into a vessel containing 900 ml of dissolution medium (0.1 N HCl) at 37.0+/−0.5° C. and stirred at 75 rpm.

- solubility (dissolution) compared with larger particle sizes: much lower solubility
- % Dissolution (D50 = 20 μm, 0 min, D50 = 89 μm after 60 min set to 100%): 0%
- % Dissolution (D50 = 20 μm, 15 min, D50 = 89 μm after 60 min set to 100%): 24%
- % Dissolution (D50 = 20 μm, 30 min, D50 = 89 μm after 60 min set to 100%): 52%
- % Dissolution (D50 = 20 μm, 45 min, D50 = 89 μm after 60 min set to 100%): 74%
- % Dissolution (D50 = 20 μm, 60 min, D50 = 89 μm after 60 min set to 100%): 86%
- % Dissolution (D50 = 82 μm, 0 min, D50 = 89 μm after 60 min set to 100%): 0%
- % Dissolution (D50 = 82 μm, 15 min, D50 = 89 μm after 60 min set to 100%): 90%
- % Dissolution (D50 = 82 μm, 30 min, D50 = 89 μm after 60 min set to 100%): 96%
- % Dissolution (D50 = 82 μm, 45 min, D50 = 89 μm after 60 min set to 100%): 98%
- % Dissolution (D50 = 82 μm, 60 min, D50 = 89 μm after 60 min set to 100%): 98%
- % Dissolution (D50 = 89 μm, 0 min, D50 = 89 μm after 60 min set to 100%): 0%
- % Dissolution (D50 = 89 μm, 15 min, D50 = 89 μm after 60 min set to 100%): 87%
- % Dissolution (D50 = 89 μm, 30 min, D50 = 89 μm after 60 min set to 100%): 98%
- % Dissolution (D50 = 89 μm, 45 min, D50 = 89 μm after 60 min set to 100%): 99%
- % Dissolution (D50 = 89 μm, 60 min, set to 100%): 100%
Structure (SMILES): C[C@@H](NCCCc1cccc(C(F)(F)F)c1)c1cccc2ccccc12.Cl [cinacalcet HCl]
